From US20100279409A1, “METHOD FOR MODIFYING CELLUAR IMMUNE RESONSE BY MODULATING ACTIVIN ACTIVITY” (priority 2007, published 2010)

Experiments:
CD8+ T cells = assay: Purified CD8+ T cell activation and expansion with recombinant activin-A; type: cell-based, human; settings: anti-CD3/CD28 beads, activin-A 0, 10, 100 ng/ml, 24 or 72 hours
Experimental: To test this, CD8^+ T cells were purified and labeled with carboxy fluorescein succinimidy/ester (“CFSE” hereafter). These cells were cultured in wells, at 1×10^5 cells/well, in standard medium supplemented with 20 U/ml of IL-2, either with or without anti-CD3/CD28 bead stimulation, in the presence of increasing doses of commercially available, recombinant activin-A (0, 10, and 100 ng/ml), for 24 or 72 hours. Cell division was assessed over time by flow cytometry and IFN-γ production via a standard ELISA.

C57/B6 mice = type: in vivo, mouse; settings: 100 ng activin-A subcutaneously, live influenza virus intraperitoneally, day 7
Human NK cells [1] = assay: Western blot for Smad 2/3 in NK cells; type: cell-based; settings: ex vivo purified NK cells, 50 ng/ml activin-A, 4 hours
Experimental: Human NK cells were highly purified, following standard methods; and were either lysed immediately or cultured for 20 hours in medium that had been supplemented with 20 U/ml IL-2, either with or without 10 ng/ml of IL-12, or with or without the toll like receptor 3 ligand Poly I:C, 5×10^5, lysed immediately, and then assayed for ALK-4 (an activin type I receptor), and RITA (an activin type II receptor), via qRT-PCR. In parallel, 1×10^5 highly purified NK cells were cultured in medium supplemented with 20 U/ml IL-2, with or without 50 ng/ml of recombinant human activin-A. Cells were harvested after 4 hours, and Western blotting was carried out for Smad 2/3 and β-actin.

Human NK cells [2] = assay: Intracellular cytokine staining of IFN-γ in NK cells; type: cell-based; settings: 16 hours, BFA 1 μg/ml
Experimental: In these experiments 1×10^5 highly purified human NK cells were cultured as above, but were cultured with Poly I:C (10 μg/ml), or LPS (100 ng/ml), with or without 10, 50, or 100 ng/ml of recombinant human activin-A. In some cases, the known compound “SB431542,” which blocks activin-A binding to receptors was added. IFN-γ was then measured via ELISA, or by intracellular cytokine staining after 16 hours of culture, via addition of 1 μg/ml BFA, to prevent cytokine release.
In additional follow up experiments, the NK cells were stimulated with IL-2 or the combination of IL-2 and IL-12, plus poly I:C or LPS, for 16 hours, in the presence of 1 μg/ml of BFA, before a standard ICS assay was carried out via flow cytometry.

Human NK cells [3] = assay: CFSE division assay of NK cells; type: cell-based; settings: 5 days, activin-A 100 ng/ml
Experimental: In these experiments, 1×10^5 highly purified human NK cells were labeled with CFSE, and cultured for 5 days in medium supplemented with 20 U/ml IL-2 and 10 ng/ml IL-12, either with or without Poly I:C or LPS, either with or without 100 ng/ml of human recombinant activin-A. Cellular division was assessed by determining loss of CFSE intensity using known, flow cytometric methods.

NK cells [4] = assay: qRT-PCR of NK cell gene expression; type: cell-based, human; settings: 16 hours
Experimental: In a second set of experiments, 5×10^5 purified NK cells were cultured as described herein, in 24 well-plates and were then collected, and lysed after 16 hours of culture.
The lysates were treated to extract the mRNA, which was then subjected to qRT-PCR to determine expression of each of T-bet (a transcription factor), IFN-γ, perforin, granzyme A, and granzyme B.

NK cells [5] = assay: Multiplex cytokine and chemokine array of NK cell supernatants; type: cell-based, human; settings: activated NK cells
Experimental: The analysis reported supra was extended to an analysis of the supernatants produced during the various cell culture experiments. A multiplex array system for chemokines and cytokines were used, as was a standard ELISA for measuring IFN-γ. Bead arrays were used to quantify each of IFN-γ, IL-1 IL-6, IL-8, IL-10, TNF-α, GM-CSF, IP-10, MCP-1, MIP-1α, and 1β. Levels of production were measured using standard methodologies.

[6] = test system: NK cells (target cells K562 or Jurkat cells); assay: NK cell killing of calcein-labeled target cells; type: cell-based, human; settings: 100 ng/ml, 3 days culture, K562 or Jurkat targets, 4 hours
Experimental: 1×10^6 purified NK cells were cultured in 24 well-plates, either with a high dose of IL-2 (100 U/ml), or a combination of 20 U/ml of IL-2 and IL-12. The culturing took place in the absence of either of activin-A or TGF-β or 100 ng/ml of one of them. The culture continued for 3 days.
After the 3 days of culture, the NK cells were combined with target cells K562 or Jurkat cells, at effector (NK cells): target (K562 or Jurkat cells) ratios of 5:1, 2:1, and 0.1:1. The target cells had been labeled with calcein previously. The total number of labeled target cells was 2×10^4, and the mixture was incubated for 4 hours. The efficiency of killing was determined by measuring calcein dye release via spectrometry.

Substance: activin-A
- CD8+ T cell ability to generate IFN-γ (CD8+ T cells): did not regulate
- CD8+ T cell division (CD8+ T cells): did not regulate
- peptide specific CD8+ IFN-γ+ T cell response (C57/B6 mice): suppressed
- intracellular Smad 2/3 levels (Human NK cells [1]): enhanced intracellular Smad 2/3 levels
- number of IFN-γ producing cells (Human NK cells [2]): not due to a decrease in the number of IFN-γ producing cells
- number of IFN-γ producing cells (Human NK cells [2]; listed as Activin-A): did not effect these populations
- division and proliferation of NK cells (Human NK cells [3]; IL-2, IL-12, LPS): very strongly suppressed
- division and proliferation of NK cells (Human NK cells [3]; IL-2, IL-12, Poly I:C): very strongly suppressed
- IFN-γ mRNA expression (NK cells [4]): inhibited expression of T-bet and IFN-γ significantly
- T-bet mRNA expression (NK cells [4]): inhibited expression of T-bet and IFN-γ significantly
- perforin, granzyme A and granzyme B mRNA expression (NK cells [4]): had no effect
- GM-CSF production (NK cells [5]): suppressed
- IFN-γ production (bead array) (NK cells [5]): suppressive effect
- IL-1β production (NK cells [5]): suppressed
- IL-6 production (NK cells [5]): suppressed
- IL-8 production (NK cells [5]): suppressing
- IL-10 production (NK cells [5]): increased the low amounts of IL-10 that had been produced, significantly
- IP-10 production (NK cells [5]): suppressing
- MIP-1α production (NK cells [5]): suppressing
- MIP-1β production (NK cells [5]): suppressing
- TNF-α production (NK cells [5]): suppressed
- killing ability of NK cells [6]: had no impact whatsoever
